Key:
Conditions in all cases: exposure time: 72 h
E21 [1] = patient-derived glioblastoma stem cells of mesenchymal subtype; test: phenotypic distance (Euclidean, principal components) from DMSO controls (arbitrary units); higher = stronger morphological change
E13 [2] = patient-derived glioblastoma stem cells of classical subtype; test: as above
E28 [3] = patient-derived glioblastoma stem cells of classical subtype; test: as above
E34 [4] = patient-derived glioblastoma stem cells of proneural subtype; test: as above
E31 [5] = patient-derived glioblastoma stem cells of proneural subtype; test: as above
E57 [6] = patient-derived glioblastoma stem cells of mesenchymal subtype; test: as above
FT3469 [7] = normal neural stem cell line; test: as above
E21 [8] = test: surviving fraction (nuclei count normalised to DMSO); higher = more cells surviving (less toxic)
E13 [9] = test: as above
E28 [10] = test: as above
E34 [11] = test: as above
E31 [12] = test: as above
E57 [13] = test: as above
FT3469 [14] = test: as above
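For phenotypic distance (Euclidean, principal components) from DMSO controls in this document: cell Painting imaging in 384-well plates, CellProfiler features reduced to at least 20 principal components, Euclidean distance versus same-plate DMSO vehicle wells (0.1% v/v), median over six images per well.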
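For surviving fraction (nuclei count normalised to DMSO) in this document: nuclei counted by high-content imaging of Hoechst-stained cells in laminin-coated 384-well plates, relative to 0.1% DMSO vehicle wells, with staurosporine as cell-death control.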

Question: Which results are given for `C[C@H]1O[C@@H](O[C@H]2[C@@H](O)C[C@H](O[C@H]3[C@@H](O)C[C@H](O[C@H]4CC[C@@]5(C)[C@H](CC[C@@H]6[C@@H]5C[C@@H](O)[C@]5(C)[C@@H](C7=CC(=O)OC7)CC[C@]65O)C4)O[C@@H]3C)O[C@@H]2C)C[C@H](O)[C@@H]1O` [Digoxin]?
Answer: phenotypic distance (E21 [1]; 4.1 nM): 2.11; phenotypic distance (E21 [1]; 12.3 nM): 3.25; phenotypic distance (E21 [1]; 37 nM): 3.77; phenotypic distance (E21 [1]; 111.1 nM): 6.27; phenotypic distance (E21 [1]; 333.3 nM): 6.66; phenotypic distance (E21 [1]; 1000 nM): 5.99; phenotypic distance (E21 [1]; 3000 nM): 6.15; phenotypic distance (E13 [2]; 4.1 nM): 2.96; phenotypic distance (E13 [2]; 12.3 nM): 3.64; phenotypic distance (E13 [2]; 37 nM): 5.02; phenotypic distance (E13 [2]; 111.1 nM): 5.57; phenotypic distance (E13 [2]; 333.3 nM): 6.42; phenotypic distance (E13 [2]; 1000 nM): 6.06; phenotypic distance (E13 [2]; 3000 nM): 6.15; phenotypic distance (E28 [3]; 4.1 nM): 1; phenotypic distance (E28 [3]; 12.3 nM): 1.47; phenotypic distance (E28 [3]; 37 nM): 2.1; phenotypic distance (E28 [3]; 111.1 nM): 2.57; phenotypic distance (E28 [3]; 333.3 nM): 2.97; phenotypic distance (E28 [3]; 1000 nM): 3.74; phenotypic distance (E28 [3]; 3000 nM): 2.92; phenotypic distance (E34 [4]; 4.1 nM): 1.18; phenotypic distance (E34 [4]; 12.3 nM): 3.09; phenotypic distance (E34 [4]; 37 nM): 4.76; phenotypic distance (E34 [4]; 111.1 nM): 5.12; phenotypic distance (E34 [4]; 333.3 nM): 3.77; phenotypic distance (E34 [4]; 1000 nM): 3.7; phenotypic distance (E34 [4]; 3000 nM): 5.72; phenotypic distance (E31 [5]; 4.1 nM): 2.21; phenotypic distance (E31 [5]; 12.3 nM): 3.02; phenotypic distance (E31 [5]; 37 nM): 4.38; phenotypic distance (E31 [5]; 111.1 nM): 5.51; phenotypic distance (E31 [5]; 333.3 nM): 5.08; phenotypic distance (E31 [5]; 1000 nM): 4.94; phenotypic distance (E31 [5]; 3000 nM): 4.77; phenotypic distance (E57 [6]; 4.1 nM): 1.42; phenotypic distance (E57 [6]; 12.3 nM): 3.76; phenotypic distance (E57 [6]; 37 nM): 5.52; phenotypic distance (E57 [6]; 111.1 nM): 5.37; phenotypic distance (E57 [6]; 333.3 nM): 6.22; phenotypic distance (E57 [6]; 1000 nM): 6.34; phenotypic distance (E57 [6]; 3000 nM): 6.45; phenotypic distance (FT3469 [7]; 4.1 nM): 2.61; phenotypic distance (FT3469 [7]; 12.3 nM): 3.2; phenotypic distance (FT3469 [7]; 37 nM): 4.1; phenotypic distance (FT3469 [7]; 111.1 nM): 3.74; phenotypic distance (FT3469 [7]; 333.3 nM): 3.18; phenotypic distance (FT3469 [7]; 1000 nM): 4.16; phenotypic distance (FT3469 [7]; 3000 nM): 3.8; surviving fraction (E21 [8]; 4.1 nM): 0.854; surviving fraction (E21 [8]; 12.3 nM): 0.676; surviving fraction (E21 [8]; 37 nM): 0.497; surviving fraction (E21 [8]; 111.1 nM): 0.368; surviving fraction (E21 [8]; 333.3 nM): 0.269; surviving fraction (E21 [8]; 1000 nM): 0.266; surviving fraction (E21 [8]; 3000 nM): 0.218; surviving fraction (E13 [9]; 4.1 nM): 0.795; surviving fraction (E13 [9]; 12.3 nM): 0.448; surviving fraction (E13 [9]; 37 nM): 0.349; surviving fraction (E13 [9]; 111.1 nM): 0.348; surviving fraction (E13 [9]; 333.3 nM): 0.272; surviving fraction (E13 [9]; 1000 nM): 0.306; surviving fraction (E13 [9]; 3000 nM): 0.266; surviving fraction (E28 [10]; 4.1 nM): 0.839; surviving fraction (E28 [10]; 12.3 nM): 0.85; surviving fraction (E28 [10]; 37 nM): 0.696; surviving fraction (E28 [10]; 111.1 nM): 0.628; surviving fraction (E28 [10]; 333.3 nM): 0.491; surviving fraction (E28 [10]; 1000 nM): 0.452; surviving fraction (E28 [10]; 3000 nM): 0.332; surviving fraction (E34 [11]; 4.1 nM): 0.979; surviving fraction (E34 [11]; 12.3 nM): 0.745; surviving fraction (E34 [11]; 37 nM): 0.632; surviving fraction (E34 [11]; 111.1 nM): 0.539; surviving fraction (E34 [11]; 333.3 nM): 0.466; surviving fraction (E34 [11]; 1000 nM): 0.394; surviving fraction (E34 [11]; 3000 nM): 0.293; surviving fraction (E31 [12]; 4.1 nM): 0.87; surviving fraction (E31 [12]; 12.3 nM): 0.721; surviving fraction (E31 [12]; 37 nM): 0.47; surviving fraction (E31 [12]; 111.1 nM): 0.403; surviving fraction (E31 [12]; 333.3 nM): 0.36; surviving fraction (E31 [12]; 1000 nM): 0.356; surviving fraction (E31 [12]; 3000 nM): 0.252; surviving fraction (E57 [13]; 4.1 nM): 1; surviving fraction (E57 [13]; 12.3 nM): 0.74; surviving fraction (E57 [13]; 37 nM): 0.392; surviving fraction (E57 [13]; 111.1 nM): 0.27; surviving fraction (E57 [13]; 333.3 nM): 0.207; surviving fraction (E57 [13]; 1000 nM): 0.166; surviving fraction (E57 [13]; 3000 nM): 0.112; surviving fraction (FT3469 [14]; 4.1 nM): 0.79; surviving fraction (FT3469 [14]; 12.3 nM): 0.652; surviving fraction (FT3469 [14]; 37 nM): 0.628; surviving fraction (FT3469 [14]; 111.1 nM): 0.686; surviving fraction (FT3469 [14]; 333.3 nM): 0.684; surviving fraction (FT3469 [14]; 1000 nM): 0.577; surviving fraction (FT3469 [14]; 3000 nM): 0.566

Question: Which results are given for `CC(C)N1CCN(c2ccc(OCC3COC(Cn4cncn4)(c4ccc(Cl)cc4Cl)O3)cc2)CC1` (stereo unspecified) [Terconazole]?
Answer: phenotypic distance (E21 [1]; 4.1 nM): 0.486; phenotypic distance (E21 [1]; 12.3 nM): 0.855; phenotypic distance (E21 [1]; 37 nM): 0.706; phenotypic distance (E21 [1]; 111.1 nM): 0.737; phenotypic distance (E21 [1]; 333.3 nM): 0.686; phenotypic distance (E21 [1]; 1000 nM): 0.994; phenotypic distance (E21 [1]; 3000 nM): 1.83; phenotypic distance (E13 [2]; 4.1 nM): 0.687; phenotypic distance (E13 [2]; 12.3 nM): 5.3; phenotypic distance (E13 [2]; 37 nM): 0.523; phenotypic distance (E13 [2]; 111.1 nM): 0.619; phenotypic distance (E13 [2]; 333.3 nM): 0.667; phenotypic distance (E13 [2]; 1000 nM): 0.49; phenotypic distance (E13 [2]; 3000 nM): 0.901; phenotypic distance (E28 [3]; 4.1 nM): 0.79; phenotypic distance (E28 [3]; 12.3 nM): 0.643; phenotypic distance (E28 [3]; 37 nM): 0.472; phenotypic distance (E28 [3]; 111.1 nM): 0.647; phenotypic distance (E28 [3]; 333.3 nM): 0.465; phenotypic distance (E28 [3]; 1000 nM): 0.53; phenotypic distance (E28 [3]; 3000 nM): 2.3; phenotypic distance (E34 [4]; 4.1 nM): 0.517; phenotypic distance (E34 [4]; 12.3 nM): 1.12; phenotypic distance (E34 [4]; 37 nM): 0.485; phenotypic distance (E34 [4]; 111.1 nM): 0.473; phenotypic distance (E34 [4]; 333.3 nM): 0.562; phenotypic distance (E34 [4]; 1000 nM): 0.745; phenotypic distance (E34 [4]; 3000 nM): 0.672; phenotypic distance (E31 [5]; 4.1 nM): 0.557; phenotypic distance (E31 [5]; 12.3 nM): 1.01; phenotypic distance (E31 [5]; 37 nM): 0.47; phenotypic distance (E31 [5]; 111.1 nM): 0.863; phenotypic distance (E31 [5]; 333.3 nM): 0.868; phenotypic distance (E31 [5]; 1000 nM): 0.76; phenotypic distance (E31 [5]; 3000 nM): 2.39; phenotypic distance (E57 [6]; 4.1 nM): 0.465; phenotypic distance (E57 [6]; 12.3 nM): 0.601; phenotypic distance (E57 [6]; 37 nM): 0.61; phenotypic distance (E57 [6]; 111.1 nM): 0.332; phenotypic distance (E57 [6]; 333.3 nM): 0.688; phenotypic distance (E57 [6]; 1000 nM): 0.505; phenotypic distance (E57 [6]; 3000 nM): 1.09; phenotypic distance (FT3469 [7]; 4.1 nM): 0.835; phenotypic distance (FT3469 [7]; 12.3 nM): 0.931; phenotypic distance (FT3469 [7]; 37 nM): 1.01; phenotypic distance (FT3469 [7]; 111.1 nM): 0.79; phenotypic distance (FT3469 [7]; 333.3 nM): 0.822; phenotypic distance (FT3469 [7]; 1000 nM): 0.77; phenotypic distance (FT3469 [7]; 3000 nM): 1.17; surviving fraction (E21 [8]; 4.1 nM): 0.938; surviving fraction (E21 [8]; 12.3 nM): 0.927; surviving fraction (E21 [8]; 37 nM): 0.891; surviving fraction (E21 [8]; 111.1 nM): 0.99; surviving fraction (E21 [8]; 333.3 nM): 0.933; surviving fraction (E21 [8]; 1000 nM): 1.03; surviving fraction (E21 [8]; 3000 nM): 0.813; surviving fraction (E13 [9]; 4.1 nM): 0.892; surviving fraction (E13 [9]; 12.3 nM): 0.918; surviving fraction (E13 [9]; 37 nM): 0.999; surviving fraction (E13 [9]; 111.1 nM): 0.856; surviving fraction (E13 [9]; 333.3 nM): 0.988; surviving fraction (E13 [9]; 1000 nM): 1.02; surviving fraction (E13 [9]; 3000 nM): 0.958; surviving fraction (E28 [10]; 4.1 nM): 1.15; surviving fraction (E28 [10]; 12.3 nM): 1.04; surviving fraction (E28 [10]; 37 nM): 0.91; surviving fraction (E28 [10]; 111.1 nM): 0.941; surviving fraction (E28 [10]; 333.3 nM): 1.09; surviving fraction (E28 [10]; 1000 nM): 1.02; surviving fraction (E28 [10]; 3000 nM): 0.951; surviving fraction (E34 [11]; 4.1 nM): 0.941; surviving fraction (E34 [11]; 12.3 nM): 0.827; surviving fraction (E34 [11]; 37 nM): 0.91; surviving fraction (E34 [11]; 111.1 nM): 1.04; surviving fraction (E34 [11]; 333.3 nM): 1.01; surviving fraction (E34 [11]; 1000 nM): 1.1; surviving fraction (E34 [11]; 3000 nM): 0.994; surviving fraction (E31 [12]; 4.1 nM): 1.04; surviving fraction (E31 [12]; 12.3 nM): 0.925; surviving fraction (E31 [12]; 37 nM): 0.922; surviving fraction (E31 [12]; 111.1 nM): 1.01; surviving fraction (E31 [12]; 333.3 nM): 0.96; surviving fraction (E31 [12]; 1000 nM): 0.889; surviving fraction (E31 [12]; 3000 nM): 0.873; surviving fraction (E57 [13]; 4.1 nM): 0.985; surviving fraction (E57 [13]; 12.3 nM): 0.938; surviving fraction (E57 [13]; 37 nM): 0.963; surviving fraction (E57 [13]; 111.1 nM): 1; surviving fraction (E57 [13]; 333.3 nM): 0.978; surviving fraction (E57 [13]; 1000 nM): 1; surviving fraction (E57 [13]; 3000 nM): 0.948; surviving fraction (FT3469 [14]; 4.1 nM): 0.997; surviving fraction (FT3469 [14]; 12.3 nM): 0.89; surviving fraction (FT3469 [14]; 37 nM): 0.908; surviving fraction (FT3469 [14]; 111.1 nM): 0.85; surviving fraction (FT3469 [14]; 333.3 nM): 0.987; surviving fraction (FT3469 [14]; 1000 nM): 0.952; surviving fraction (FT3469 [14]; 3000 nM): 0.964
